{"source": "patent US10953027B2", "about": "“Active agents and methods of their use for the treatment of metabolic disorders and nonalcoholic fatty liver disease” (Flagship Pioneering Innovations V, Inc., priority 2018, dated 2021)", "key": {"[1]": {"assay": "Assay 1. Stability in Simulated Gastric Fluid (SGF)", "assay_type": "in vitro ADME", "conditions": "1 μM, 37° C., SGF pH 1.6 with pepsin", "experimental": "Assay 1. Stability of acylated active agents in Simulated Gastric Fluid (SGF). This assay was used to assess the stability of an acylated active agent in a stomach.\nMedium was prepared by dissolving 2 g of sodium chloride in 0.6 L of ultrapure water (MilliQ®, Millipore Sigma, Darmstadt, Germany). The pH was adjusted to 1.6 with 1N hydrochloric acid, and the volume was then adjusted to 1 L with purified water.\n60 mg FaSSIF powder (Biorelevant™, London, UK) were dissolved in 500 mL buffer (above). Pepsin was added (0.1 mg/mL) (Millipore Sigma, Darmstadt, Germany), and the solution was stirred. The resulting SGF media were used fresh for each experiment.\nTest compounds were dissolved in DMSO stock to 1 mM. An aliquot of the DMSO stock solution was removed and diluted in the SGF Media in 15 mL falcon tubes to generate a compound concentration of 1 μM. A 1 mL aliquot was immediately removed and diluted once with 1 volume of acetonitrile for T0 timepoint. The mixture was sealed and mixed at 37° C. in an incubator. Aliquots (1 mL) were removed at regular intervals and immediately quenched by the addition of 1 volume of acetonitrile. The resulting samples were analyzed by LC/MS to determine degradation rates in SGF."}, "[2]": {"assay": "Assay 2. Stability in Simulated Intestinal Fluid (SIF)", "assay_type": "in vitro ADME", "conditions": "1 μM, 37° C., SIF pH 6.7 with pancreatin", "experimental": "Assay 2. Stability of acylated active agents in Simulated Intestinal Fluid (SIF). This assay was used to assess the stability of an acylated active agent in a small intestine.\nPhosphate buffer was prepared by dissolving 0.42 g of sodium hydroxide pellets and 3.95 g of monobasic sodium phosphate monohydrate and 6.19 g of sodium chloride in ultrapure water (MilliQ®, Millipore Sigma, Darmstadt, Germany). The pH was adjusted to 6.7 using aq. HCl and aq. NaOH, as necessary, and the solution was diluted with ultrapure water to produce 1 L of the pH 6.7 buffer.\n112 mg FaSSIF powder (Biorelevant™, London, UK) was dissolved in 50 mL of the pH 6.7 buffer. 2 to 3 mL of the resulting solution were then added to 500 mg pancreatin (Millipore Sigma, Darmstadt, Germany). The resulting mixture was agitated by finger tapping the vessel containing the mixture until milky suspension formed. At this time, the remainder of the 50 mL FaSSiF/pH 6.7 buffer solution was added. The resulting suspension was flipped upside down 10 times to produce SIF, which was used fresh.\nTest compounds were dissolved in DMSO stock to 1 mM. An aliquot of the DMSO stock solution was removed and diluted in the SIF media in 15 mL falcon tubes to produce a mixture with a tested compound concentration of 1 μM. A 1 mL aliquot was immediately removed and diluted once with 1 volume of acetonitrile for T0 timepoint. The mixture was sealed and agitated at 37° C. in an incubator. Aliquots (1 mL) were removed at regular intervals and immediately quenched by the addition of 1 volume of acetonitrile. The resulting samples were analyzed by LC/MS to determine degradation rates."}}}
{"smiles": "CCCC(=O)O[C@H](C)CCOC(=O)Oc1ccc(/C=C/c2cc(OC(=O)OCC[C@@H](C)OC(=O)CCC)cc(OC(=O)OCC[C@@H](C)OC(=O)CCC)c2)cc1", "note": "[Compound 75, (2R,2′R)-((((5-((E)-4-((((R)-3-(butyryloxy)butoxy)carbonyl)oxy)styryl)-1,3-phenylene)bis(oxy))bis(carbonyl))bis(oxy))bis(butane-4,2-diyl) dibutyrate]", "values": [{"measurement": "Assay 1 (SGF) (% Remaining @ 1 hours)", "setting": "[1]", "value": "C (C: >75% of the tested compound remaining)"}, {"measurement": "Assay 2 (SIF) (% @ Remaining 4 hours)", "setting": "[2]", "value": "B (B: 25-75% of the tested compound remaining)"}]}
{"smiles": "CCC(=O)OC1O[C@@H](C)[C@@H](OC(=O)CC)[C@@H](OC(=O)CC)[C@@H]1OC(=O)CC", "note": "(stereo partly drawn) [Compound 157, (3S,4R,5R,6S)-6-methyl-3,4,5-tris(propanoyloxy)oxan-2-yl Propanoate]", "values": [{"measurement": "Assay 1 (SGF) (% Remaining @ 1 hours)", "setting": "[1]", "value": "C (C: >75% of the tested compound remaining)"}, {"measurement": "Assay 2 (SIF) (% @ Remaining 4 hours)", "setting": "[2]", "value": "A (A: <25% of the tested compound remaining)"}]}
{"smiles": "CCCC(=O)O[C@H]1[C@@H](OC(=O)CCC)COC(O)[C@@H]1OC(=O)CCC", "note": "(stereo partly drawn) [Compound 72, (3R,4S,5S)-2-hydroxytetrahydro-2H-pyran-3,4,5-triyl Tributyrate]", "values": [{"measurement": "Assay 1 (SGF) (% Remaining @ 1 hours)", "setting": "[1]", "value": "C (C: >75% of the tested compound remaining)"}, {"measurement": "Assay 2 (SIF) (% @ Remaining 4 hours)", "setting": "[2]", "value": "A (A: <25% of the tested compound remaining)"}]}
{"smiles": "CCCC(=O)Oc1ccc(/N=N/c2ccc(OC(=O)CCC)c(C(=O)O)c2)cc1C(=O)O", "note": "[Compound 32, 2-butanoyloxy-5-[(E)-(4-butanoyloxy-3-carboxy-phenyl)azo]benzoic Acid]", "values": [{"measurement": "Assay 1 (SGF) (% Remaining @ 1 hours)", "setting": "[1]", "value": "A (A: <25% of the tested compound remaining)"}, {"measurement": "Assay 2 (SIF) (% @ Remaining 4 hours)", "setting": "[2]", "value": "A (A: <25% of the tested compound remaining)"}]}
{"smiles": "C[C@@H]1CCOC(C)(C(=O)Oc2ccc(/C=C/c3cc(OC(=O)C4(C)OCC[C@@H](C)O4)cc(OC(=O)C4(C)OCC[C@@H](C)O4)c3)cc2)O1", "note": "(stereo partly drawn) [Compound 65, [4-[(E)-2-[3,5-bis[[(4R)-2,4-dimethyl-1,3-dioxane-2-carbonyl]oxy]phenyl]vinyl]phenyl] (4R)-2,4-dimethyl-1,3-dioxane-2-carboxylate]", "values": [{"measurement": "Assay 1 (SGF) (% Remaining @ 1 hours)", "setting": "[1]", "value": "C (C: >75% of the tested compound remaining)"}, {"measurement": "Assay 2 (SIF) (% @ Remaining 4 hours)", "setting": "[2]", "value": "C (C: >75% of the tested compound remaining)"}]}
{"smiles": "CCCC(=O)Nc1ccc(O)c(C(=O)O)c1", "note": "[Compound 40, 5-(butanoylamino)-2-hydroxy-benzoic Acid]", "values": [{"measurement": "Assay 1 (SGF) (% Remaining @ 1 hours)", "setting": "[1]", "value": "C (C: >75% of the tested compound remaining)"}, {"measurement": "Assay 2 (SIF) (% @ Remaining 4 hours)", "setting": "[2]", "value": "C (C: >75% of the tested compound remaining)"}]}
{"smiles": "C=C1CC[C@H](OC(=O)C2(C)OCC[C@@H](C)O2)C/C1=C/C=C1\\CCC[C@]2(C)[C@@H]([C@H](C)CCCC(C)C)CC[C@@H]12", "note": "(stereo partly drawn) [Compound 70, [(1 S,3Z)-3-[(2E)-2-[(1R,3aS,7aR)-1-[(1R)-1,5-dimethylhexyl]-7a-methyl-2,3,3a,5,6,7-hexahydro-1H-inden-4-ylidene]ethylidene]-4-methylene-cyclohexyl] (4R)-2,4-dimethyl-1,3-dioxane-2-carboxylate]", "values": [{"measurement": "Assay 1 (SGF) (% Remaining @ 1 hours)", "setting": "[1]", "value": "B (B: 25-75% of the tested compound remaining)"}, {"measurement": "Assay 2 (SIF) (% @ Remaining 4 hours)", "setting": "[2]", "value": "C (C: >75% of the tested compound remaining)"}]}
{"smiles": "CCCC(=O)O[C@@H]1[C@@H](OC(=O)CCC)[C@@H](OC(=O)CCc2c[nH]c3ccccc23)OC[C@@H]1OC(=O)CCC", "note": "[Compound 114, (2R,3R,4S,5S)-4,5-bis(butanoyloxy)-2-{[3-(1H-indol-3-yl)propanoyl]oxy}oxan-3-yl Butanoate]", "values": [{"measurement": "Assay 1 (SGF) (% Remaining @ 1 hours)", "setting": "[1]", "value": "B (B: 25-75% of the tested compound remaining)"}, {"measurement": "Assay 2 (SIF) (% @ Remaining 4 hours)", "setting": "[2]", "value": "A (A: <25% of the tested compound remaining)"}]}
{"smiles": "O=C(CCc1c[nH]c2ccccc12)O[C@H]1OC[C@@H](OC(=O)CCc2c[nH]c3ccccc23)[C@@H](OC(=O)CCc2c[nH]c3ccccc23)[C@H]1OC(=O)CCc1c[nH]c2ccccc12", "note": "[Compound 182, (2R,3R,4R,5R)-3,4,5-tris({[3-(1H-indol-3-yl)propanoyl]oxy})oxan-2-yl 3-(1H-indol-3-yl)propanoate]", "values": [{"measurement": "Assay 1 (SGF) (% Remaining @ 1 hours)", "setting": "[1]", "value": "C (C: >75% of the tested compound remaining)"}, {"measurement": "Assay 2 (SIF) (% @ Remaining 4 hours)", "setting": "[2]", "value": "A (A: <25% of the tested compound remaining)"}]}
{"smiles": "C[C@@H]1O[C@H](OC(=O)CCc2c[nH]c3ccccc23)[C@@H](OC(=O)CCc2c[nH]c3ccccc23)[C@H](OC(=O)CCc2c[nH]c3ccccc23)[C@@H]1OC(=O)CCc1c[nH]c2ccccc12", "note": "[Compound 103, (2R,3S,4R,5R,6S)-3,4,5-tris({[3-(1H-indol-3-yl)propanoyl]oxy})-6-methyloxan-2-yl 3-(1H-indol-3-yl)propanoate]", "values": [{"measurement": "Assay 1 (SGF) (% Remaining @ 1 hours)", "setting": "[1]", "value": "B (B: 25-75% of the tested compound remaining)"}, {"measurement": "Assay 2 (SIF) (% @ Remaining 4 hours)", "setting": "[2]", "value": "A (A: <25% of the tested compound remaining)"}]}
{"smiles": "CCCC(=O)Oc1ccc(/C=C/c2cc(OC(=O)CCC)cc(OC(=O)CCC)c2)cc1", "note": "[Compound 1, [4-[(E)-2-[3,5-di(butanoyloxy)phenyl]vinyl]phenyl] butanoate]", "values": [{"measurement": "Assay 1 (SGF) (% Remaining @ 1 hours)", "setting": "[1]", "value": "C (C: >75% of the tested compound remaining)"}, {"measurement": "Assay 2 (SIF) (% @ Remaining 4 hours)", "setting": "[2]", "value": "B (B: 25-75% of the tested compound remaining)"}]}
{"smiles": "CCC(=O)O[C@@H]1[C@H](OC(=O)CC)[C@H](C)OC(O)[C@H]1OC(=O)CC", "note": "(stereo partly drawn) [Compound 156, (3S,4R,5R,6S)-2-hydroxy-6-methyl-4,5-bis(propanoyloxy)oxan-3-yl Propanoate]", "values": [{"measurement": "Assay 1 (SGF) (% Remaining @ 1 hours)", "setting": "[1]", "value": "C (C: >75% of the tested compound remaining)"}, {"measurement": "Assay 2 (SIF) (% @ Remaining 4 hours)", "setting": "[2]", "value": "A (A: <25% of the tested compound remaining)"}]}
{"smiles": "CCCC(=O)O[C@@H]1[C@@H](OC(=O)CCC)[C@H](Oc2ccc(N)cc2C(=O)O)OC[C@H]1OC(=O)CCC", "note": "[Compound 34, 5-amino-2-[(2S,3R,4S,5R)-3,4,5-tri(butanoyloxy)tetrahydropyran-2-yl]oxy-benzoic Acid]", "values": [{"measurement": "Assay 1 (SGF) (% Remaining @ 1 hours)", "setting": "[1]", "value": "C (C: >75% of the tested compound remaining)"}, {"measurement": "Assay 2 (SIF) (% @ Remaining 4 hours)", "setting": "[2]", "value": "C (C: >75% of the tested compound remaining)"}]}
{"smiles": "CC(=O)Oc1ccc(-c2oc3cc(OC(C)=O)cc(OC(C)=O)c3c(=O)c2OC(C)=O)cc1", "note": "[Compound 20, [4-(3,5,7-triacetoxy-4-oxo-chromen-2-yl)phenyl] acetate]", "values": [{"measurement": "Assay 1 (SGF) (% Remaining @ 1 hours)", "setting": "[1]", "value": "C (C: >75% of the tested compound remaining)"}, {"measurement": "Assay 2 (SIF) (% @ Remaining 4 hours)", "setting": "[2]", "value": "A (A: <25% of the tested compound remaining)"}]}
{"smiles": "CCCC(=O)Oc1ccc([C@@H]2CC(=O)c3c(OC(=O)CCC)cc(OC(=O)CCC)cc3O2)cc1", "note": "[Compound 22, (S)-2-(4-(butyryloxy)phenyl)-4-oxochromane-5,7-diyl dibutyrate]", "values": [{"measurement": "Assay 1 (SGF) (% Remaining @ 1 hours)", "setting": "[1]", "value": "B (B: 25-75% of the tested compound remaining)"}, {"measurement": "Assay 2 (SIF) (% @ Remaining 4 hours)", "setting": "[2]", "value": "A (A: <25% of the tested compound remaining)"}]}
{"smiles": "Cc1c(C)c2c(c(C)c1OC(=O)C1OCC[C@@H](C)O1)CC[C@@](C)(CCC[C@H](C)CCC[C@H](C)CCCC(C)C)O2", "note": "(stereo partly drawn) [Compound 66, [(2R)-2,5,7,8-tetramethyl-2-[(4R,8R)-4,8,12-trimethyltridecyl]chroman-6-yl] (4R)-4-methyl-1,3-dioxane-2-carboxylate]", "values": [{"measurement": "Assay 1 (SGF) (% Remaining @ 1 hours)", "setting": "[1]", "value": "C (C: >75% of the tested compound remaining)"}, {"measurement": "Assay 2 (SIF) (% @ Remaining 4 hours)", "setting": "[2]", "value": "A (A: <25% of the tested compound remaining)"}]}
{"smiles": "CC(=O)Oc1ccc(/C=C/c2cc(OC(C)=O)cc(OC(C)=O)c2)cc1", "note": "[Compound 18, [4-[(E)-2-(3,5-diacetoxyphenyl)vinyl]phenyl] acetate]", "values": [{"measurement": "Assay 1 (SGF) (% Remaining @ 1 hours)", "setting": "[1]", "value": "C (C: >75% of the tested compound remaining)"}, {"measurement": "Assay 2 (SIF) (% @ Remaining 4 hours)", "setting": "[2]", "value": "C (C: >75% of the tested compound remaining)"}]}
